Experimental data taken from patent publication EP0037516A1, “N-omega substituted derivatives of 1-Desamino-vasopressin analogs” (VEGA LABORATORIES, INC., priority 1980, dated 1981).
Marks after values point to notes of the source that are not given here. *1 amine or outer side, *2 acyl side, *3 side chain or, on linkers, in order; H or OH if unused. Where a SMILES comes first, the peptide text is derived from it. Bridges are numbered along the chain shown (N, C = ends). Side-chain parts run from the residue outwards. [ ]: non-standard residue; d: D form. Thz = O=C(O)[C@@H]1CSCN1; X1 = O=C(CCC[*:2])[*:1]; Mpa = O=C(O)CCS

Legend:
[1] = Antidiuretic assay in rats, calibrated against arginine-vasopressin; type: in vivo, male Sprague-Dawley rats; settings: for Peak Potency (antidiuretic activity): 200g male Sprague-Dawley rats, calibrated against arginine-vasopressin; for Mean Peak Potency (Product) F: antidiuretic activity, peak potency multiplied by F; for Ratio of Half-Life of Compound to Parent Half-Life (F): antidiuretic response; for antidiuretic activity (in words): comment on Table 4
[2] = Pressor assay in rats, calibrated against arginine-vasopressin; type: in vivo, male Sprague-Dawley rats; settings: for Peak Potency (pressor activity): 200g male Sprague-Dawley rats, calibrated against arginine-vasopressin; for Mean Peak Potency (Product) F: pressor activity, peak potency multiplied by F; for Ratio of Half-Life of Compound to Parent Half-Life (F): pressor response; for pressor activity (in words): comment on Table 3
Factor VIII [3] = assay: Factor VIII release, clotting assay in male canine citrated plasma; type: in vivo; settings: for Factor VIII Releasing Activity: male canine citrated plasma, calibrated against desmopressin; for Factor VIII releasing activity (in words): comment on Table 5
Procedure: Pressor and antidiuretic assays of the compounds of Examples I-IV were carried out in 200g body weight, male Sprague-Dawley rats using the techniques reported by Schaechtelin et al in "Enhancement of the Activity of Angiotensin II by Certain Cations," Molec. Pharmacol., 10, 57-67 (1974) and Cort et al in "Role of the Disulfide Bridge and the C-Terminal Tripeptide in the Anti-diuretic Action of Vasopressin in Man and the Rat", Kidney Internat. , 8, 292-302 (1975), with calibration of responses against a 3-point curve using highly purified arginine-vasopressin of known activity. Similar tests were performed on known vasopressin analogs for purposes of comparison. In addition, the release of Factor VIII by the compounds of Examples I-IV was tested in male canine citrated plasna using the clotting assay described by Prowse et al, in Brit. J. Haematol., 41, 437 (1979), and the results were calibrated against the Factor VIII releasing activity of desmopressin. In all cases, the half-lives of the responses were compared to the standard at equi-peak-potent levels.

Factor VIII [4] = assay: Factor VIII releasing activity in pentothal-anesthetized dogs, standard clotting assay; type: in vivo; settings: for Factor VIII Releasing Activity: dogs
Procedure: The 9-Ala-NH2 analogs of Examples XII and XIII were evaluated for ability to stimulate production of Factor VIII by administration to pentothal-anesthestized dogs. These analogs, as well as desmopressin used as a control, were administered i.v. into the external jugular vein at a dose of 10 meg/kg body weight. Factor VIII analysis was performed by standard clotting assay (using normal dog plasma as 100% clotting and severely hemophilic dog plasma as 0% for the standard curve) just prior to injection, and at periodic intervals for up to 4 hours after injection.

[5] = as compared to [2-Phe,8-Lys]-vasopressin
[6] = as compared to [8-Lys]-vasopressin (footnote *)
[7] = as compared to 1-desamino-[8-Lys]-vasopressin (footnote ***)
[8] = Pre-Injection, normal dog plasma = 100% clotting
[9] = no comparator footnote (parent itself)

Compound	Peak Potency (antidiuretic activity) [1] [IU/mg]	Mean Peak Potency (Product) F [1]	Ratio of Half-Life of Compound to Parent Half-Life (F) ([1]; comparator not given)	Peak Potency (pressor activity) [2] [IU/mg]	Mean Peak Potency (Product) F [2]	antidiuretic activity (in words) [1]	pressor activity (in words) [2]	Factor VIII Releasing Activity (Factor VIII [3]) [%]	other results
NCCCC[C@H](NC(=O)[C@@H]1CCCN1C(=O)[C@@H]1CSSCCC(=O)N[C@@H](Cc2ccccc2)C(=O)N[C@@H](Cc2ccccc2)C(=O)N[C@@H](CCC(N)=O)C(=O)N[C@@H](CC(N)=O)C(=O)N1)C(=O)NCC(N)=O [1-desamino-[2-Phe, 8-Lys]-vasopressin, 1-desamino-[2-Phe, 8-Lys]vasopressin, reference compound] ([Mpa]FFQNCPKG-NH2; disulfide 1-6)	30	45	1.5	45	67.5				Ratio of Half-Life of Compound to Parent Half-Life (F) [2, 5]: 1.5**
NCCCC[C@H](NC(=O)[C@@H]1CCCN1C(=O)[C@@H]1CSSCCC(=O)N[C@@H](Cc2ccc(O)cc2)C(=O)N[C@@H](Cc2ccccc2)C(=O)N[C@@H](CCC(N)=O)C(=O)N[C@@H](CC(N)=O)C(=O)N1)C(=O)NCC(N)=O [1-desamino-[8-Lys]-vasopressin, reference compound]	300	450	1.5	126	189				Ratio of Half-Life of Compound to Parent Half-Life (F) [2, 6]: 1.5*
NCC(=O)NCCCC[C@H](NC(=O)[C@@H]1CCCN1C(=O)[C@@H]1CSSCCC(=O)N[C@@H](Cc2ccccc2)C(=O)N[C@@H](Cc2ccccc2)C(=O)N[C@@H](CCC(N)=O)C(=O)N[C@@H](CC(N)=O)C(=O)N1)C(=O)NCC(N)=O [Example I, l-Desamino-[2-Phe, 8-N^ε-Lys(Gly)]-Vasopressin] ([Mpa]FFQNCPK(Gly)G-NH2; disulfide 1-6)	6	24	4.0	6.9	60	low antidiuretic activity	prolonged pressor activity of higher potency than that of tGLVP	101	Ratio of Half-Life of Compound to Parent Half-Life (F) [2, 5]: 8.7**
NCC(=O)NCC(=O)NCC(=O)NCCCC[C@H](NC(=O)[C@@H]1CCCN1C(=O)[C@@H]1CSSCCC(=O)N[C@@H](Cc2ccc(O)cc2)C(=O)N[C@@H](Cc2ccccc2)C(=O)N[C@@H](CCC(N)=O)C(=O)N[C@@H](CC(N)=O)C(=O)N1)C(=O)NCC(N)=O [Example II, 1-Desamino-[8-N^ε-Lys(Gly-Gly-Gly)]-Vasopressin]	8	44	5.5	15	157.5	low antidiuretic activity	prolonged pressor activity of higher potency than that of tGLVP	104	Ratio of Half-Life of Compound to Parent Half-Life (F) [2, 7]: 10.5***
CC[C@H](C)[C@@H]1NC(=O)[C@H](Cc2ccc(O)cc2)NC(=O)CCSSC[C@@H](C(=O)N2CCC[C@H]2C(=O)N[C@H](CCCCNC(=O)CN)C(=O)NCC(N)=O)NC(=O)[C@H](CC(N)=O)NC(=O)[C@H](CCC(N)=O)NC1=O [Example III, 1-Desamino-[8-D-N^ε-Lys(Gly)]-Vasotocin] ([Mpa]YIQNCP[dK](Gly)G-NH2; disulfide 1-6)	290	1508		0.1		considerable antidiuretic activity	substantially devoid of pressor activity	165	Ratio of Half-Life of Compound to Parent Half-Life (F) ([1]; as compared to 1-desamino-[8-Lys]-vasopressin (footnote *)): 5.2*; Factor VIII releasing activity (in words) (Factor VIII [3]): significant activity in releasing Factor VIII
CC(C)C[C@H](N)C(=O)NCCCC[C@H](NC(=O)[C@@H]1CSCN1C(=O)[C@@H]1CSCCCC(=O)N[C@@H](Cc2ccc(O)cc2)C(=O)N[C@@H](Cc2ccccc2)C(=O)N[C@@H](CCC(N)=O)C(=O)N[C@@H](CC(N)=O)C(=O)N1)C(=O)NCC(N)=O [Example IV, 1-Desamino-1-monocarba-[7-thioPro, 8-NE-Lys(Leu)]-Vasopressin] (YFQNC[Thz]K(Leu)G-NH2; linker N-5 via X1)	450	3015	6.7	350	3675	considerable antidiuretic activity	prolonged pressor activity of higher potency than that of tGLVP	285	Ratio of Half-Life of Compound to Parent Half-Life (F) [2, 7]: 10.5***; Factor VIII releasing activity (in words) (Factor VIII [3]): significant activity in releasing Factor VIII
C[C@@H](NC(=O)[C@H](CCCCNC(=O)CNC(=O)CNC(=O)CN)NC(=O)[C@@H]1CCCN1C(=O)[C@@H]1CSSCCC(=O)N[C@@H](Cc2ccc(O)cc2)C(=O)N[C@@H](Cc2ccccc2)C(=O)N[C@@H](CCC(N)=O)C(=O)N[C@@H](CC(N)=O)C(=O)N1)C(N)=O [Example XII, 1-Desamino-[8-N^9-Lys(Gly-Gly-Gly), 9-D-Ala]-vasopressin] ([Mpa]YFQNCPK([Gly-Gly-Gly])[dA]-NH2; disulfide 1-6)									Factor VIII Releasing Activity (Factor VIII [4]; 15 min. after i.v. 10 meg/kg): 110%; Factor VIII Releasing Activity (Factor VIII [4]; 60 min. after i.v. 10 meg/kg): 165%; Factor VIII Releasing Activity (Factor VIII [4]; 120 min. after i.v. 10 meg/kg): 185%; Factor VIII Releasing Activity (Factor VIII [4]; 240 min. after i.v. 10 meg/kg): 220%; Factor VIII Releasing Activity (Factor VIII [4]; [8]): 100%
C[C@H](NC(=O)[C@@H](CCCCNC(=O)CNC(=O)CNC(=O)CN)NC(=O)[C@@H]1CCCN1C(=O)[C@@H]1CSSCCC(=O)N[C@@H](Cc2ccc(O)cc2)C(=O)N[C@@H](Cc2ccccc2)C(=O)N[C@@H](CCC(N)=O)C(=O)N[C@@H](CC(N)=O)C(=O)N1)C(N)=O [Example XIII, 1-Desamino-[Q-D-NE-Lys(Gly-Gly-Gly), 9-Ala-NH2]-vasopressin] ([Mpa]YFQNCP[dK]([Gly-Gly-Gly])A-NH2; disulfide 1-6)									Factor VIII Releasing Activity (Factor VIII [4]; 15 min. after i.v. 10 meg/kg): 115%; Factor VIII Releasing Activity (Factor VIII [4]; 60 min. after i.v. 10 meg/kg): 153%; Factor VIII Releasing Activity (Factor VIII [4]; 120 min. after i.v. 10 meg/kg): 175%; Factor VIII Releasing Activity (Factor VIII [4]; 240 min. after i.v. 10 meg/kg): 210%; Factor VIII Releasing Activity (Factor VIII [4]; [8]): 105%
NCCCC[C@H](NC(=O)[C@@H]1CCCN1C(=O)[C@@H]1CSSC[C@H](N)C(=O)N[C@@H](Cc2ccccc2)C(=O)N[C@@H](Cc2ccccc2)C(=O)N[C@@H](CCC(N)=O)C(=O)N[C@@H](CC(N)=O)C(=O)N1)C(=O)NCC(N)=O [[2-Phe, 8-Lys]-vasopressin, reference compound] (H-CFFQNCPKG-NH2; disulfide 1-6)	25	25	1.0	80	80				Ratio of Half-Life of Compound to Parent Half-Life (F) [2, 9]: 1.0
NCCCC[C@H](NC(=O)[C@@H]1CCCN1C(=O)[C@@H]1CSSC[C@H](N)C(=O)N[C@@H](Cc2ccc(O)cc2)C(=O)N[C@@H](Cc2ccccc2)C(=O)N[C@@H](CCC(N)=O)C(=O)N[C@@H](CC(N)=O)C(=O)N1)C(=O)NCC(N)=O [[8-Lys]-vasopressin, reference compound]	200	220	1.0	220	220				Ratio of Half-Life of Compound to Parent Half-Life (F) [2, 9]: 1.0
NCCCC[C@H](NC(=O)[C@@H]1CCCN1C(=O)[C@@H]1CSSC[C@H](NC(=O)CNC(=O)CNC(=O)CN)C(=O)N[C@@H](Cc2ccc(O)cc2)C(=O)N[C@@H](Cc2ccccc2)C(=O)N[C@@H](CCC(N)=O)C(=O)N[C@@H](CC(N)=O)C(=O)N1)C(=O)NCC(N)=O [tGLVP, N^c<-glycyl-glycyl-glycyl-8-lysine-vasopressin, reference compound] (H-GGGCYFQNCPKG-NH2; disulfide 4-9)	1.1	9.2	4.0	2.1	8.4				Ratio of Half-Life of Compound to Parent Half-Life (F) [2, 6]: 4.0*
Desmopressin [reference compound]								250	Factor VIII Releasing Activity (Factor VIII [4]; 15 min. after i.v. 10 meg/kg): 125%; Factor VIII Releasing Activity (Factor VIII [4]; 60 min. after i.v. 10 meg/kg): 185%; Factor VIII Releasing Activity (Factor VIII [4]; 120 min. after i.v. 10 meg/kg): 125%; Factor VIII Releasing Activity (Factor VIII [4]; 240 min. after i.v. 10 meg/kg): 105%; Factor VIII Releasing Activity (Factor VIII [4]; [8]): 98%; Factor VIII releasing activity (in words) (Factor VIII [4]; comment on Table 6, 4 hours after injection): substantially decreased to zero at 4 hours
